From PubChem BioAssay (NCI)
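Exposure lasted 48 hours, with cells grown in 96-well plates and compounds tested at five concentrations. TGI is the concentration that stops growth completely.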

Columns and labels:
Experiment in all cases: inhibition of tumour cell growth, NCI panel, 48 h
[1] = test system: RPMI-8226 leukemia
[2] = test system: SN12C renal
[3] = test system: COLO 205 colon
[4] = test system: MCF7 breast
[5] = test system: T-47D breast
[6] = test system: NCI-H226 lung
[7] = test system: ACHN renal
[8] = test system: MDA-N
[9] = test system: RXF 393 renal
[10] = test system: K-562 leukemia
[11] = test system: 786-0 renal
[12] = test system: SF-268 CNS
[13] = test system: SK-MEL-28 melanoma
[14] = test system: OVCAR-8 ovarian
[15] = test system: EKVX NSCLC
[16] = test system: MALME-3M melanoma
[17] = test system: A498 renal
[18] = test system: DU-145 prostate
[19] = test system: HCC-2998 colon
[20] = test system: NCI-H522 lung
[21] = test system: OVCAR-5 ovarian
[22] = test system: U251 CNS
[23] = test system: PC-3 prostate
[24] = test system: M14 melanoma
[25] = test system: CAKI-1 renal
[26] = test system: MOLT-4 leukemia
[27] = test system: CCRF-CEM leukemia
[28] = test system: TK-10 renal
[29] = test system: HT29 colon
[30] = test system: BT-549 breast
[31] = test system: OVCAR-3 ovarian
[32] = test system: HCT-15 colon
[33] = test system: KM12 colon
[34] = test system: HS 578T breast
[35] = test system: NCI/ADR-RES ovarian
[36] = test system: UACC-257 melanoma
[37] = test system: SK-MEL-2 melanoma
[38] = test system: NCI-H23 lung
[39] = test system: SW-620 colon
[40] = test system: IGROV1 ovarian
[41] = test system: MDA-MB-435
[42] = test system: MDA-MB-231 breast
[43] = test system: SK-MEL-5 melanoma
[44] = test system: SK-OV-3 ovarian
[45] = test system: OVCAR-4 ovarian
[46] = test system: SF-295 CNS
[47] = test system: UACC-62 melanoma
[48] = test system: HOP-62 NSCLC
[49] = test system: SNB-19 CNS
[50] = test system: UO-31 renal
[51] = test system: A549 NSCLC
[52] = test system: HCT-116 colon
[53] = test system: NCI-H460 lung
[54] = test system: SR leukemia
[55] = test system: SF-539 CNS
[56] = test system: HL-60(TB) leukemia
[57] = test system: HOP-92 NSCLC
[58] = test system: SNB-75 CNS

CC(C)c1cc(C(C)C)c(S(=O)(=O)N/N=C2\CC3CCC2(C)C3(C)C)c(C(C)C)c1 (centres undefined)
TGI [1]: 21.2 µM | TGI [2]: 38.2 µM | TGI [3]: 79.3 µM | TGI [4]: 30.7 µM | TGI [5]: 68 µM | TGI [6]: 80 µM | TGI [7]: > 100 µM | TGI [8]: 64.8 µM | TGI [9]: 58.5 µM | TGI [10]: > 100 µM | TGI [11]: > 100 µM | TGI [12]: > 100 µM | TGI [13]: > 100 µM | TGI [14]: > 100 µM | TGI [15]: 71.5 µM | TGI [16]: > 100 µM | TGI [17]: 32.7 µM | TGI [18]: > 100 µM | TGI [19]: > 100 µM | TGI [20]: 36.8 µM | TGI [21]: > 100 µM | TGI [22]: > 100 µM | TGI [23]: > 100 µM | TGI [24]: > 100 µM | TGI [25]: > 100 µM | TGI [26]: 40 µM | TGI [27]: 22.8 µM | TGI [28]: > 100 µM | TGI [29]: 43.8 µM | TGI [30]: > 100 µM | TGI [31]: > 100 µM | TGI [32]: > 100 µM | TGI [33]: > 100 µM | TGI [34]: > 100 µM | TGI [35]: > 100 µM | TGI [36]: 26.2 µM | TGI [37]: > 100 µM | TGI [38]: > 100 µM | TGI [39]: > 100 µM | TGI [40]: > 100 µM | TGI [41]: > 100 µM | TGI [42]: > 100 µM | TGI [43]: 30.5 µM | TGI [44]: > 100 µM | TGI [45]: > 100 µM | TGI [46]: 63.9 µM | TGI [47]: > 100 µM | TGI [48]: > 100 µM | TGI [49]: > 100 µM | TGI [50]: > 100 µM | TGI [51]: > 100 µM | TGI [52]: > 100 µM

COc1ccc2nc3cc(Cl)ccc3c(NCCCN(C)CCCNc3ccc4ncn5c6ccccc6c(=O)c3c45)c2c1
TGI [53]: 0.504 µM | TGI [1]: > 25 µM | TGI [2]: 5.28 µM | TGI [3]: 3.66 µM | TGI [5]: > 17.3 µM | TGI [6]: 1.98 µM | TGI [7]: 3.93 µM | TGI [8]: 4.77 µM | TGI [9]: 1.14 µM | TGI [54]: > 7.84 µM | TGI [10]: > 25 µM | TGI [11]: 8.7 µM | TGI [12]: 12.6 µM | TGI [13]: 7.38 µM | TGI [14]: 8.52 µM | TGI [15]: 7.15 µM | TGI [16]: 7.09 µM | TGI [17]: 6.52 µM | TGI [18]: 7.19 µM | TGI [55]: 5.26 µM | TGI [19]: 0.423 µM | TGI [20]: 1.73 µM | TGI [21]: 6.47 µM | TGI [22]: 1.63 µM | TGI [56]: 2.2 µM | TGI [23]: 5.34 µM | TGI [24]: 5.8 µM | TGI [25]: 4.36 µM | TGI [26]: > 5.72 µM | TGI [27]: > 25 µM | TGI [28]: 1.76 µM | TGI [29]: 0.69 µM | TGI [30]: 4.59 µM | TGI [31]: 6.79 µM | TGI [32]: > 9.4 µM | TGI [33]: 4.99 µM | TGI [34]: > 19.5 µM | TGI [35]: > 14.1 µM | TGI [36]: 6.81 µM | TGI [37]: 7.23 µM | TGI [38]: 6.13 µM | TGI [39]: > 25 µM | TGI [40]: 4.37 µM | TGI [41]: 5.23 µM | TGI [42]: 6.02 µM | TGI [43]: 4.62 µM | TGI [44]: 6.04 µM | TGI [45]: 3.95 µM | TGI [57]: > 16.9 µM | TGI [46]: 5.37 µM | TGI [47]: 7.93 µM | TGI [58]: 7.55 µM | TGI [48]: 6.1 µM | TGI [49]: 5.86 µM | TGI [50]: 7.28 µM | TGI [51]: 1.55 µM | TGI [52]: 4.86 µM
